Series [1] in a line: Release kinetics / degradation of OLA and AA in PBS by UV-Vis. The format is physicochemical. Conditions: buffer, pH 7.4.
Description: Briefly, 0.9 mg of NP was weighed into a quartz cuvette and then 3 mL of PBS solution (pH=7.4) was carefully added to the cuvette. The absorbance curve from 200 nm to 400 nm was measured continuously every half hour until the plateau was reached. The amount of OLA and ascorbic acid released was determined at wavelengths of 311 nm and 265 nm, respectively. This technique allowed simultaneous quantification of the two molecules by monitoring the absorbance at 311 nm (OLA) and 265 nm (AA) (FIG. 1).
All measurements were performed in triplicate.
The degradation of AA followed an exponential decay according to the equation y(t)=e^−t/τ, where τ corresponds to the half-life of the molecule.
Series [2] deals with PANC-1 cell migration. Nature of the series: Cell migration assay. It counts as cell-based, Human. Particulars: PANC-1, Cl25 of OLA, monitored 72 h. On the procedure:
PANC-1 cell migration is a phenomenon related to PARP1 inhibition. To study the effect of NP-ACP-OLA-AA with respect to free OLA and OLA-NPs, the following treatment was carried out with the PANC-1 cell line. NP-ACP-AA was used as a control.
The PANC- 1 cell line was seeded in a 12-well plate (Thermo Fisher) and grown to 95-100% confluence in medium supplemented with DMEM (Sigma-Aldrich). Then, a […] was manually performed using a pipette tip. The next day, dead cells were removed using phosphate buffered saline (PBS) and the culture medium was replaced with DMEM without FBS to prevent cell proliferation. Then, Cl25 of OLA concentration (free and OLA-NPs) was added to the wells and the cells were incubated for 72 h during which the migratory process was monitored using a DM-IL LED microscope. The percentage of migration was calculated by measuring the tumor cell free area at different times using ImageJ software with the Chemotaxis and Migration Tool add-on.

In series [3] the test system is PANC-1. Nature of the series: Cytotoxicity, Sulforhodamine B proliferation assay. It counts as cell-based, Human. Here is the method:
Human pancreatic ductal adenocarcinoma cell lines MIA PaCa-2 and PANC1 and the murine pancreatic cancer cell line Panc02 were used. All cell lines were cultured in Dulbecco's modified Eagle medium (DMEM) supplemented with 10% fetal bovine serum and 1% streptomycin penicillin (Sigma-Aldrich). Cells were maintained in monolayer culture in an atmosphere of 37° C. and 5% CO2 and passaged using 0.25% trypsin and 0.02% EDTA.
Panc02, PANC-1 and MIA PaCa-2 cell lines were treated with NP-ACP-OLA and NP-ACP-OLA-AA to determine their cytotoxic effect. The toxicity of NP-ACP and NP-ACP-AA (controls) was tested in all cell lines. For this, PANC-1 cells were seeded at densities of 8×10^3 cells/well and Panc02 and MIA PaCa-2 cells at densities of 2.5×10^3 cells/well in 48-well plates, incubated overnight and exposed to DMSO (OLA solvent), OLA (in different concentration ranges depending on the cell line used), NPs with and without OLA and ascorbic acid for 72 h. Subsequently, the cells were fixed with 10% trichloroacetic acid for 20 minutes and washed three times with distilled water. […] Finally, the optical density (OD) of the dye was measured with a Titertek Multiskan colorimeter (Flow) at 492 nm. Proliferation percentages (Pf %) were calculated as: Pf %=(OD of sample/OD of negative control)×100. […]

In series [4] the test system is PANC-1-induced tumors. Nature of the series: In vivo tumor growth and survival, mice with PANC-1-induced tumors. Particulars: 25 mg/kg OLA intraperitoneally every 3 days, 10 cycles. Here is the method: Male and female NOD scid gamma mice generated by the Centro de Instrumentación Científica of the University of Granada were used for the in vivo study. All mice (body weight: 20-25 g) were housed in cages with free access to water and food prior to the experiments and were maintained under controlled temperature, light and humidity (22.0±2° C., 12 h light-dark cycle and 40-70% relative humidity), in specific pathogen-free conditions with sterile atmosphere controlled by HEPA filters. The study was approved by the Ethical Committee for Animal Experimentation of the University of Granada (reference code: 16/01/2020/005) and was performed in accordance with its guidelines. Tumors were induced by subcutaneous injection of 9×10^5 cells derived from the PANC1 cell line into the right flank of NOD-SCID gamma mice. When the tumor was palpable, animals were randomly divided into four groups (n=8-10 mice per group, selecting the tumor-inducing mice): PANC1 mice treated with OLA solvent-(group I), OLA (group II), NP-ACP-AA (group III) and NP-ACP-OLA-AA (group IV). The OLA solvent was 5% DMSO, 40% PEG300, 5% Tween-80 and 50% saline and the NPs were dispersed in saline. […] Weights and deaths were carefully recorded throughout the period and tumor volume was measured with a digital caliper. Tumor volume (mm^3) was calculated as follows: V (mm^3)=(a×b2×π)/6. […]

Where only a bound is given, the exact number is not on record here.

Take `O=C1O[C@H]([C@@H](O)CO)C(O)=C1O` [AA, ascorbic acid]: the “time AA remained before being degraded” value in series [1] (10.5 ppm) is recorded as at most 12 h. Moreover, the half-life at 10.5 ppm in series [1] is 2.7 h.

Consider `O=C(c1cc(Cc2n[nH]c(=O)c3ccccc23)ccc1F)N1CCN(C(=O)C2CC2)CC1` [OLA, Olaparib], for which, in series [2], the “inhibition of cell migration compared to untreated cells” value was “inhibited migration only at 72 hours”. The “Cl50 in PANC-1 higher than in MIA PaCa-2” value in series [3] (PANC-1 vs MIA PaCa-2) is 8.5 times. Besides, the “Cl50 in PANC-1 higher than in Panc02” value in series [3] (PANC-1 vs Panc02) was found to be 7.5 times. In addition, in series [4], the “decrease in tumor volume compared to untreated control mice” value was 28.3% and the survival of mice amounted to 44%.

These data come from patent publication US20260216085A1, “NANOPARTICLES TO ENHANCE THE EFFECTS OF DRUGS FOR THE TREATMENT OF CANCER” (UNIVERSIDAD DE GRANADA, priority 2022, published 2026).
